Read-outs that look alike come from different tables or passages of the source.
What was measured:
Assay type in all cases: cell-based
Nav 1.7 [1] = molecular target: T1, Nav 1.7 (Homo sapiens (Human), UniProt Q15858); assay: Nav 1.7 in vitro PX assay (PatchXpress whole cell voltage clamp); details: 293 cells, human Nav1.7, partially inactivated state; read-out: Nav1.7 PX IC50 IP
Summary of the method: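 HEK293 cells stably expressing human Nav1.7, whole-cell voltage clamp on PatchXpress, held at potential giving 20–50% inactivation; current elicited by 20 msec pulse to −10 mV.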

Nav 1.5 = Nav 1.5 (Homo sapiens (Human), UniProt Q14524); assay: Nav 1.5 in vitro PX assay (PatchXpress whole cell voltage clamp); details: 293 cells stably transfected with Nav 1.5
Chain of Nav 1.5 (Q14524 whole entry): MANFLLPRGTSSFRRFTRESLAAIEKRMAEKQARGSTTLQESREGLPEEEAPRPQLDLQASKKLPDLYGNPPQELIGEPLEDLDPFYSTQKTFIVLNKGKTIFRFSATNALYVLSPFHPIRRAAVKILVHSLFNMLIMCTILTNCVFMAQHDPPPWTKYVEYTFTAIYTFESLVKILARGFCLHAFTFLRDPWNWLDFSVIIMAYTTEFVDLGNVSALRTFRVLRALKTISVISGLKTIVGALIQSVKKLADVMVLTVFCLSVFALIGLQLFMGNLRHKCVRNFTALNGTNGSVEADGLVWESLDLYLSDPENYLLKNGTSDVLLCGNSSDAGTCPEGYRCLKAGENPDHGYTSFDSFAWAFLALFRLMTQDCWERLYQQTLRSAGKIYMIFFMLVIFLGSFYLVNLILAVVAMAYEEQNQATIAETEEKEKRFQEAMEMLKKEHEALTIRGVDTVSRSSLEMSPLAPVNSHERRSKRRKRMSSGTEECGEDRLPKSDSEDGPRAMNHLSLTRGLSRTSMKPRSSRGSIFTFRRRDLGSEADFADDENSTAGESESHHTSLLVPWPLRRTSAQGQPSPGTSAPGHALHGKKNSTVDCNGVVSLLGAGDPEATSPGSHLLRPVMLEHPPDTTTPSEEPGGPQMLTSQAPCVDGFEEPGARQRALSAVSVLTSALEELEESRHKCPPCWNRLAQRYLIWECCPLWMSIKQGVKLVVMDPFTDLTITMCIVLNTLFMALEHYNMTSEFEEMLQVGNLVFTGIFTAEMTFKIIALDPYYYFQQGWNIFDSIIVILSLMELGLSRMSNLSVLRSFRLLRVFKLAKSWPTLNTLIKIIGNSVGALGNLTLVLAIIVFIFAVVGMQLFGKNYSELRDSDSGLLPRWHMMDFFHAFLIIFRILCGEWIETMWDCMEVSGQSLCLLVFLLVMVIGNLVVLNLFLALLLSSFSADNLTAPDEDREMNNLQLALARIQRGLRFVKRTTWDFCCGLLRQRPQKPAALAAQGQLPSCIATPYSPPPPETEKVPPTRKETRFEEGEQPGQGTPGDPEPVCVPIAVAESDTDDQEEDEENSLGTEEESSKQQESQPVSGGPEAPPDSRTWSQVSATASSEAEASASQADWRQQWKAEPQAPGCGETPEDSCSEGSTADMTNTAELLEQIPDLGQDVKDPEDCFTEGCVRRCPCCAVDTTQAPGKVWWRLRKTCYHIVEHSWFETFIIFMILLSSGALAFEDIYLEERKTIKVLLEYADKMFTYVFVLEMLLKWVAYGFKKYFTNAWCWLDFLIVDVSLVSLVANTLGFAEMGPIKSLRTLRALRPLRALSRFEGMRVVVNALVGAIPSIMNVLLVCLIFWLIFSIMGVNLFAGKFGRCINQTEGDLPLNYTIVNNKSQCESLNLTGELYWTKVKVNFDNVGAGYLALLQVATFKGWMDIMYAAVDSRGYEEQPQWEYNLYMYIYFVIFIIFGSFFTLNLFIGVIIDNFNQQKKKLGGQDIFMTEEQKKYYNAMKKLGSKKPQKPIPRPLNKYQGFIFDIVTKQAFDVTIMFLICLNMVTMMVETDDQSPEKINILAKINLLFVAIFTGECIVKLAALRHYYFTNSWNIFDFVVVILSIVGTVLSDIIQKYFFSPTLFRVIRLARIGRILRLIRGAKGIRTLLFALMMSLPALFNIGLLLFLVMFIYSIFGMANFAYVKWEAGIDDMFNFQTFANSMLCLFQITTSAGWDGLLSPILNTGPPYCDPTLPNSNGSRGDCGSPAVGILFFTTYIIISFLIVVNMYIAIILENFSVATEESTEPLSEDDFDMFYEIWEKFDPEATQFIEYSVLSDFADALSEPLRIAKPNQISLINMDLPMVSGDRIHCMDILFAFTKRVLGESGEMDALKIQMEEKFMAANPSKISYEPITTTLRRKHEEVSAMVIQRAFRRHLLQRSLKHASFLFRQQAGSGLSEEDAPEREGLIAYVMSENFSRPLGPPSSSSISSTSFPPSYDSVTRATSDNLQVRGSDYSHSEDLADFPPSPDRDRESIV
Protocol: Nav 1.5 In Vitro PX Assay
293 cells stably transfected with Nav 1.5 were recorded in whole cell voltage clamp mode with the PatchXpress automated electrophysiology system according the manufacturer's specifications (Molecular Devices, LLC, Sunnyvale, Calif.). Cells were held at a holding potential of −50 mV to inactivate sodium channels. To elicit sodium currents the voltage was changed to −120 mV to recover a portion of the channels, followed by delivery of test pulses of 20 msec duration to 0 mV, at 0.1 Hz. A single concentration of test compound was applied to cells for a duration of 5 minutes. Peak sodium current was measured at the end of the compound addition period to determine percent inhibition. A minimum of two cells were tested per concentration. IC50 curves were fitted to percent inhibition as a function of concentration.

Nav 1.7 [2] = molecular target: T1, Nav 1.7; assay: Nav 1.7 IWQ in vitro assay (IonWorks Quattro population patch-clamp); details: 293 cells stably transfected with Nav 1.7; second part of table; read-out: Nav1.7 IWQ IC50 IP
Summary of the method: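 HEK293 cells stably expressing Nav 1.7, recorded by automated population patch-clamp with a train of depolarizations producing increasing inactivation. Single compound concentration added during 3–8 min unclamped period, then same protocol repeated. Leak-corrected current at 26th pulse to −20 mV gave percent block (duplicate); IC50 fitted from concentration–block curves.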

[3] = second part of table, read-out: Nav1.5 PX IC50
[4] = first part of table, read-out: Nav 1.5 PX IC50

T1 sequence (Q15858 whole entry): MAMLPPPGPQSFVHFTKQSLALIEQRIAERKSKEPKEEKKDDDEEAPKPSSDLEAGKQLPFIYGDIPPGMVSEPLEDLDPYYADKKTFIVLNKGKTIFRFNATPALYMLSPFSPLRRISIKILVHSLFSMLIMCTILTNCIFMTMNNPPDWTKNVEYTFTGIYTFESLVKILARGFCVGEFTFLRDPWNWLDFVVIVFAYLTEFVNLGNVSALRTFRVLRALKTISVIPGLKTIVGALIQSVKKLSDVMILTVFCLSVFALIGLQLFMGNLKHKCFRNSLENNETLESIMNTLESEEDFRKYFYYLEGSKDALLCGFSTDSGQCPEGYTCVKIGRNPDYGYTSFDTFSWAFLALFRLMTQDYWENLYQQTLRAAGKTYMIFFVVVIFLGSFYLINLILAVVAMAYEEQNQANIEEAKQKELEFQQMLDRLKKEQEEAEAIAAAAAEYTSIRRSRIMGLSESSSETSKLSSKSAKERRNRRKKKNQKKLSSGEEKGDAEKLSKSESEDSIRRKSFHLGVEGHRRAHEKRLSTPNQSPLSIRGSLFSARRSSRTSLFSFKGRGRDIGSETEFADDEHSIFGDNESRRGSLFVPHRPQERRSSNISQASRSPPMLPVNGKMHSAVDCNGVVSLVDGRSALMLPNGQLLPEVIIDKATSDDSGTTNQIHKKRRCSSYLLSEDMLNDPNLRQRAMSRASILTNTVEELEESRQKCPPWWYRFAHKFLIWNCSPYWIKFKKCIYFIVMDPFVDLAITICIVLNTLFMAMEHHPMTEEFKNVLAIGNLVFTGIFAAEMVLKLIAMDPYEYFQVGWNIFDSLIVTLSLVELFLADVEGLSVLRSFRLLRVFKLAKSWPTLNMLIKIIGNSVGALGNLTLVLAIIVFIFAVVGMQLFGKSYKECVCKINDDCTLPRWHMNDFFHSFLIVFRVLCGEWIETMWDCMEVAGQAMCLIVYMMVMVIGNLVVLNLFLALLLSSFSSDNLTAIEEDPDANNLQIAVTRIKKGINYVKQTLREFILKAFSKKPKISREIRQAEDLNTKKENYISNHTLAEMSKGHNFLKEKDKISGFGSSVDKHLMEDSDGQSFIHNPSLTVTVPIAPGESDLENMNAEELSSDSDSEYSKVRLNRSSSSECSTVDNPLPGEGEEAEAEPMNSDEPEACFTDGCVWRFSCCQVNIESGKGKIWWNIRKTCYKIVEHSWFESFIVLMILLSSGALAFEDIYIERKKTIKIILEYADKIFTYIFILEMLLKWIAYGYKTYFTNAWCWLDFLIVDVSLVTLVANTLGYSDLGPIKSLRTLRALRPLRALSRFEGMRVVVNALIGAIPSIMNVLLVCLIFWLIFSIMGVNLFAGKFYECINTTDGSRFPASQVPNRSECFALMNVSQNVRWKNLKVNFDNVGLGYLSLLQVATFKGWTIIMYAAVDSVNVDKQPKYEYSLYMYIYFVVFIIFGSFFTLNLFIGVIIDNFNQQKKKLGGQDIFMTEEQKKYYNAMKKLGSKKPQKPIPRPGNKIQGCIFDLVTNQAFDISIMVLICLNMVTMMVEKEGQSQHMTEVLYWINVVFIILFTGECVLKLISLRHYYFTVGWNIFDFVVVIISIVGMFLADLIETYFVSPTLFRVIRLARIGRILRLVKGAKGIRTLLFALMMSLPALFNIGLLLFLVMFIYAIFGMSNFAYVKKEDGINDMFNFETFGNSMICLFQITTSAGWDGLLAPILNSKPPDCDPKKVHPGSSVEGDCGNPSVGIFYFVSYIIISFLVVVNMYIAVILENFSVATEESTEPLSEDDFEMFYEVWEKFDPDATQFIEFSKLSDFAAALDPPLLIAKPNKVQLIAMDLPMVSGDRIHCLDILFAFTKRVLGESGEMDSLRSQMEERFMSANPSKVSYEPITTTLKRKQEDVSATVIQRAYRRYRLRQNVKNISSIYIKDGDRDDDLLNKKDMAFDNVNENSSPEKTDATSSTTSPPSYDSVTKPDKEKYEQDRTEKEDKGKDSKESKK

| Structure (SMILES) | IC50 (Nav 1.7 [1]) [µM] | IC50 (Nav 1.5; [3]) [µM] | IC50 (Nav 1.5; [4]) [µM] | IC50 (Nav 1.7 [2]) [µM] |
| --- | --- | --- | --- | --- |
| COc1cc(-c2cccc(F)c2)c(C#N)cc1-c1nccc2cc(S(=O)(=O)Nc3nncs3)ccc12 [Example 341, 1-(2-CYANO-3′-FLUORO-5-METHOXY-[1,1′-BIPHENYL]-4-YL)-N-(1,3,4-THIADIAZOL-2-YL)ISOQUINOLINE-6-SULFONAMIDE] | 0.069 | > 30 |  |  |
| COc1cc(-c2ccc(C)c(Cl)c2)ccc1-c1nccc2cc(S(=O)(=O)Nc3ccncn3)ccc12 [Example 494, 1-(3′-CHLORO-3-METHOXY-4′-METHYL-[1,1′-BIPHENYL]-4-YL)-N-(PYRIMIDIN-4-YL)ISOQUINOLINE-6-SULFONAMIDE] | 0.078 | > 30 |  |  |
| COc1cc(-c2ccc(F)cc2F)ccc1-c1nccc2cc(S(=O)(=O)Nc3ccncn3)ccc12 [Example 445, 1-(2′,4′-DIFLUORO-3-METHOXY-[1,1′-BIPHENYL]-4-YL)-N-(PYRIMIDIN-4-YL)ISOQUINOLINE-6-SULFONAMIDE] | 0.218 | > 30 |  |  |
| O=S(=O)(Nc1ncns1)c1ccc2c(-c3ccc(Cl)cc3)cccc2c1 [Example 34] |  |  | 5.96 |  |
| N#CCOc1cc(F)ccc1-c1nccc2cc(S(=O)(=O)Nc3nccs3)ccc12 [Example 192, 1-(2-(CYANOMETHOXY)-4-FLUOROPHENYL)-N-(THIAZOL-2-YL)ISOQUINOLINE-6-SULFONAMIDE] | 0.33 | > 30 |  |  |
| COc1ccccc1-c1ccnc2cc(S(=O)(=O)Nc3ncns3)ccc12 [Example 320, 4-(2-METHOXYPHENYL)-N-(1,2,4-THIADIAZOL-5-YL)QUINOLINE-7-SULFONAMIDE 2,2,2-TRIFLUOROACETATE] | 0.155 | > 30 |  |  |
| O=S(=O)(Nc1ncns1)c1ccc2c(-c3ccc(C(F)(F)F)cc3F)cccc2c1 [Example 36] |  |  | 15.1 |  |
| O=S(=O)(Nc1ncns1)c1ccc2c(-c3ccc(C(F)(F)F)cc3)cccc2c1 [Example 37] |  |  | 14.4 |  |
| COc1cc(C)ccc1-c1nccc2cc(S(=O)(=O)Nc3nccs3)ccc12 [Example 175] |  | > 30 |  |  |
| COc1cc(Cl)ccc1-c1cccc2cc(S(=O)(=O)Nc3ncns3)ccc12 [Example 30] |  |  | 19.9 |  |
| Cc1cc(Cl)ccc1-c1cccc2cc(S(=O)(=O)Nc3ncns3)ccc12 [Example 33] |  |  | 9.58 |  |
| Nc1cc(Cl)ccc1-c1cccc2cc(S(=O)(=O)Nc3ncns3)ccc12 [Example 31] |  |  | > 30 |  |
| O=S(=O)(Nc1ncns1)c1ccc2c(-c3ccc(Cl)cc3F)cccc2c1 [Example 35] |  |  | 9.99 |  |
| O=S(=O)(Nc1nccs1)c1ccc2c(N3CCCC3c3ccccc3)nccc2c1 (stereo not shown) [Example 237, 1-(2-PHENYLPYRROLIDIN-1-YL)-N-(THIAZOL-2-YL)ISOQUINOLINE-6-SULFONAMIDE] | 1.23 |  |  | 0.74 |
| COc1cc(C(F)(F)F)ccc1-c1ncc(F)c2cc(S(=O)(=O)Nc3ccncn3)ccc12 [Example 216, 4-FLUORO-1-(2-METHOXY-4-(TRIFLUOROMETHYL)PHENYL)-N-(PYRIMIDIN-4-YL)ISOQUINOLINE-6-SULFONAMIDE] | 0.559 |  |  | 0.04 |
| COc1cc(OC(F)(F)F)ccc1-c1nccc2cc(S(=O)(=O)Nc3ccncn3)ccc12 [Example 153, 1-(2-METHOXY-4-(TRIFLUOROMETHOXY)PHENYL)-N-(PYRIMIDIN-4-YL)ISOQUINOLINE-6-SULFONAMIDE] | 0.914 |  |  | 0.02 |
| COc1cc(C(F)(F)F)ccc1-c1ncnc2cc(S(=O)(=O)Nc3ncns3)ccc12 [Example 265, 4-(2-METHOXY-4-(TRIFLUOROMETHYL)PHENYL)-N-(1,2,4-THIADIAZOL-5-YL)QUINAZOLINE-7-SULFONAMIDE] | 0.15 |  |  | 0.02 |
| N#CCn1c(-c2cccc3cc(S(=O)(=O)Nc4ccncn4)ccc23)cc2cc(F)ccc21 [Example 105] | 7.84 |  |  | 2.48 |
| O=S(=O)(Nc1ncns1)c1ccc2c(N3CCCC3c3ccccc3)nccc2c1 (stereo not shown) [Example 236, 1-(2-PHENYLPYRROLIDIN-1-YL)-N-(1,2,4-THIADIAZOL-5-YL)ISOQUINOLINE-6-SULFONAMIDE] | 0.43 |  |  | 0.13 |
| Cc1cc(C#N)ccc1-c1nccc2cc(S(=O)(=O)Nc3nccs3)ccc12 [Example 210, 1-(4-CYANO-2-METHYLPHENYL)-N-(THIAZOL-2-YL)ISOQUINOLINE-6-SULFONAMIDE 2,2,2-TRIFLUOROACETATE] | 0.888 |  |  | 0.14 |

| Structure (SMILES) | IC50 (Nav 1.7 [1]) [µM] | IC50 (Nav 1.5; [3]) [µM] | IC50 (Nav 1.5; [4]) [µM] | IC50 (Nav 1.7 [2]) [µM] |
| --- | --- | --- | --- | --- |
| O=S(=O)(Nc1nccs1)c1ccc2c(-c3ccc(C(F)(F)F)cc3Cl)ccnc2c1 [Example 278, 4-(2-CHLORO-4-(TRIFLUOROMETHYL)PHENYL)-N-(THIAZOL-2-YL)QUINOLINE-7-SULFONAMIDE] | 2.02 |  |  | 0.22 |
| Cn1cncc1-c1cc(C(F)(F)F)ccc1-c1cccc2cc(S(=O)(=O)Nc3ccncn3)ccc12 [Example 123] | 0.516 |  |  | 0.05 |
| COc1cc(Cl)ccc1-c1nncc2cc(S(=O)(=O)Nc3nccs3)ccc12 [Example 249, 1-(4-CHLORO-2-METHOXYPHENYL)-N-(THIAZOL-2-YL)PHTHALAZINE-6-SULFONAMIDE] | 0.29 |  |  | 0.03 |
| COc1cc(C(F)(F)F)ccc1-c1nccc2cc(S(=O)(=O)Nc3ccnc(C)n3)ccc12 [Example 182, 1-(2-METHOXY-4-(TRIFLUOROMETHYL)PHENYL)-N-(2-METHYLPYRIMIDIN-4-YL)ISOQUINOLINE-6-SULFONAMIDE] | 11.7 |  |  | 4.26 |
| O=S(=O)(Nc1ncns1)c1ccc2c(C3CCCN3)cccc2c1 (stereo not shown) [Example 95, 5-(PYRROLIDIN-2-YL)-N-(1,2,4-THIADIAZOL-5-YL)NAPHTHALENE-2-SULFONAMIDE 2,2,2-TRIFLUOROACETATE] | 7.96 |  |  | 0.54 |
| COc1cc(C(F)(F)F)ccc1-c1c(N)cnc2cc(S(=O)(=O)Nc3nccs3)ccc12 [Example 283, 3-AMINO-4-(2-METHOXY-4-(TRIFLUOROMETHYL)PHENYL)-N-(THIAZOL-2-YL)QUINOLINE-7-SULFONAMIDE] | 0.21 |  |  | 0.01 |
| COc1cc(C(F)(F)F)ccc1-c1ncc(C#N)c2cc(S(=O)(=O)Nc3ccncn3)ccc12 [Example 242, 4-CYANO-1-(2-METHOXY-4-(TRIFLUOROMETHYL)PHENYL)-N-(PYRIMIDIN-4-YL)ISOQUINOLINE-6-SULFONAMIDE] | 3.89 |  |  | 2.5 |
| O=S(=O)(Nc1ccncn1)c1ccc2c(-c3ccc(C(F)(F)F)cc3C3(F)CNC3)cccc2c1 [Example 118] | 0.652 |  |  | 0.03 |
| COc1cc(C(F)F)ccc1-c1nccc2cc(S(=O)(=O)Nc3nccs3)ccc12 [Example 224, 1-(4-(DIFLUOROMETHYL)-2-METHOXYPHENYL)-N-(THIAZOL-2-YL)ISOQUINOLINE-6-SULFONAMIDE] | 0.313 |  |  | 0.02 |
| COc1cc(C(F)(F)F)ccc1-c1cccc2cc(S(=O)(=O)Nc3ncc(F)s3)ccc12 [Example 107] | 3.32 |  |  | 0.33 |
| CN1CCN(c2cc(C(F)(F)F)ccc2-c2cccc3cc(S(=O)(=O)Nc4nccs4)ccc23)CC1 [Example 84, 5-(2-(4-METHYLPIPERAZIN-1-YL)-4-(TRIFLUOROMETHYL)PHENYL)-N-(THIAZOL-2-YL)NAPHTHALENE-2-SULFONAMIDE 2,2,2-TRIFLUOROACETATE] | 0.588 |  |  | 0.11 |
| COc1cc2cc(S(=O)(=O)Nc3nccs3)ccc2c(-c2ccc(C(F)(F)F)cc2OC)n1 [Example 221, 3-METHOXY-1-(2-METHOXY-4-(TRIFLUOROMETHYL)PHENYL)-N-(THIAZOL-2-YL)ISOQUINOLINE-6-SULFONAMIDE] | 1.53 |  |  | 0.11 |
| COc1cc(C(F)(F)F)ccc1-c1nccc2cc(S(=O)(=O)Nc3ncc(C#N)s3)ccc12 [Example 197, N-(5-CYANOTHIAZOL-2-YL)-1-(2-METHOXY-4-(TRIFLUOROMETHYL)PHENYL)ISOQUINOLINE-6-SULFONAMIDE] | 3.06 |  |  | 2.93 |
| COc1cc(C#N)ccc1-c1nccc2cc(S(=O)(=O)Nc3ccncn3)ccc12 [Example 206, 1-(4-CYANO-2-METHOXYPHENYL)-N-(PYRIMIDIN-4-YL)ISOQUINOLINE-6-SULFONAMIDE] | 4.42 |  |  | 0.11 |
| O=S(=O)(Nc1ccncn1)c1ccc2c(-c3ccc(C(F)(F)F)cc3C3=CCNC3)cccc2c1 [Example 119] | 0.179 |  |  | 0.02 |
| O=S(=O)(Nc1ncns1)c1ccc2c(C3CCCN3c3ccccn3)cccc2c1 (stereo not shown) [Example 96] | 0.323 |  |  | 0.08 |
| COc1cc(C(F)F)ccc1-c1ncnc2cc(S(=O)(=O)Nc3nccs3)ccc12 [Example 266, 4-(4-(DIFLUOROMETHYL)-2-METHOXYPHENYL)-N-(THIAZOL-2-YL)QUINAZOLINE-7-SULFONAMIDE] | 0.28 |  |  | 0.01 |
| COc1cc(-c2cccc(C#N)c2)ccc1-c1nccc2cc(S(=O)(=O)Nc3ccncn3)ccc12 [Example 200, 1-(3′-CYANO-3-METHOXY-[1,1′-BIPHENYL]-4-YL)-N-(PYRIMIDIN-4-YL)ISOQUINOLINE-6-SULFONAMIDE] | 0.424 |  |  | 0.03 |
| O=S(=O)(Nc1ccncn1)c1ccc2c(-c3cc4cc(F)ccc4[nH]3)cccc2c1 [Example 114] | 11.3 |  |  | 0.82 |

Source: patent US9012443B2 (Amgen Inc., priority 2011, dated 2015)
